This passage reports GI50 and TGI results from PubChem BioAssay (NCI).

Among the test systems are HCT-15 colon; SNB-75 CNS; OVCAR-4 ovarian; CCRF-CEM leukemia; U251 CNS; UACC-62 melanoma; EKVX NSCLC; SK-OV-3 ovarian; SF-295 CNS; NCI-H460 lung.
What all share (experiment): NCI anticancer screen, dose series, 48 h

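Values below derive from 48-hour exposures of cells grown in 96-well plates, with endpoints linearly interpolated between the two concentrations bracketing the appropriate inhibition level. GI50 marks 50% less growth. TGI marks complete inhibition of growth.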 Bounds are passed on as bounds.

Take `CCN1C(=O)N(c2ccccc2)C2NC(=S)N(/N=C/C=C/c3ccccc3)C21` (configuration not stated): the GI50 in the test with HCT-15 colon was 0.293 µM; in the test on SNB-75 CNS, greater than 100 µM; in the test with OVCAR-4 ovarian it was 4.68 µM; in the test on CCRF-CEM leukemia, 0.35 µM; with U251 CNS, 0.44 µM; with UACC-62 melanoma, 0.197 µM. The GI50 with EKVX NSCLC is 0.619 µM; in the test with SK-OV-3 ovarian it was 0.421 µM; with SF-295 CNS, 0.276 µM; with NCI-H460 lung, 0.377 µM. The TGI in the test on HCT-15 colon, in the test with SNB-75 CNS, in the test with OVCAR-4 ovarian, in the test on CCRF-CEM leukemia, with U251 CNS and in the test with UACC-62 melanoma was greater than 100 µM throughout. Also, the TGI in the test on EKVX NSCLC is greater than 100 µM; in the test with SK-OV-3 ovarian, greater than 100 µM; in the test with SF-295 CNS, greater than 100 µM; in the test on NCI-H460 lung, greater than 36.1 µM.

Take `CCN1Cc2c(ccc(F)c2C#N)O[C@@H](C)CNC(=O)c2c(N)nn3ccc1nc23`: the GI50 was 2.46 µM in the test on HCT-15 colon; 0.465 µM in the test with SNB-75 CNS; 8.44 µM in the test with OVCAR-4 ovarian; 3.74 µM in the test on CCRF-CEM leukemia; 5.34 µM in the test on U251 CNS; 0.632 µM in the test with UACC-62 melanoma. The GI50 in the test with EKVX NSCLC was 5.03 µM; in the test with SK-OV-3 ovarian it was 1.66 µM; in the test with SF-295 CNS it was 0.0758 µM; in the test with NCI-H460 lung, 2.42 µM. Moreover, the TGI in the test on HCT-15 colon is 14.9 µM; with SNB-75 CNS, 3.82 µM; in the test on OVCAR-4 ovarian, greater than 100 µM; with CCRF-CEM leukemia, greater than 100 µM; in the test on U251 CNS, 32.4 µM; with UACC-62 melanoma, 3.65 µM. For the same compound, the TGI stood at 31.4 µM in the test on EKVX NSCLC, 15.3 µM in the test on SK-OV-3 ovarian, 10.3 µM with SF-295 CNS and 28.9 µM in the test on NCI-H460 lung.

In the case of `O=C1CCCC(=O)N1CCc1c[nH]c2ccccc12`, the TGI in the test with SNB-75 CNS, in the test on OVCAR-4 ovarian, in the test with CCRF-CEM leukemia, in the test on U251 CNS, in the test on UACC-62 melanoma and in the test with EKVX NSCLC was greater than 100 µM throughout. The TGI with SK-OV-3 ovarian, with SF-295 CNS and in the test with NCI-H460 lung was greater than 100 µM in each case.

Regarding `O=C1C=CC[C@H](/C=C/c2ccccc2)O1`, the GI50 in the test on HCT-15 colon is 3.14 µM; with SNB-75 CNS, 0.394 µM; in the test on OVCAR-4 ovarian, 1.39 µM; in the test on CCRF-CEM leukemia, 9.5 µM; in the test with U251 CNS, 1.88 µM; with UACC-62 melanoma, 4.84 µM. In addition, the GI50 is 6.48 µM in the test with EKVX NSCLC, 5.54 µM in the test on SK-OV-3 ovarian, 2.54 µM in the test with SF-295 CNS and 1.53 µM in the test with NCI-H460 lung. The TGI in the test with HCT-15 colon is 22.2 µM; in the test on SNB-75 CNS it was 4.69 µM; in the test with OVCAR-4 ovarian it was 10.7 µM; in the test with CCRF-CEM leukemia it was greater than 50.2 µM; in the test on U251 CNS, 13.1 µM; in the test with UACC-62 melanoma it was 19 µM. In addition, the TGI in the test on EKVX NSCLC is greater than 50.1 µM; in the test with SK-OV-3 ovarian it was 99.4 µM; with SF-295 CNS, greater than 40.9 µM; in the test on NCI-H460 lung it was 14.3 µM.

As to `NC1=C(c2nc(-c3ccccc3)cs2)C(c2ccc(Br)cc2)c2c(c3ccccc3oc2=O)O1` (configuration not stated), the GI50 in the test on HCT-15 colon is 70.1 µg/mL; in the test on SNB-75 CNS, 2.39 µg/mL; in the test on OVCAR-4 ovarian, 34.3 µg/mL; with CCRF-CEM leukemia, 66.9 µg/mL; with U251 CNS, 48.2 µg/mL; in the test on UACC-62 melanoma it was 52.1 µg/mL. Further, the GI50 in the test with EKVX NSCLC is 50.2 µg/mL; in the test on SK-OV-3 ovarian, 60.1 µg/mL; in the test on SF-295 CNS, greater than 150 µg/mL; in the test with NCI-H460 lung it was 66.8 µg/mL. Moreover, the TGI with HCT-15 colon was greater than 150 µg/mL; with SNB-75 CNS, 36.7 µg/mL; in the test with OVCAR-4 ovarian, 99.9 µg/mL; in the test on CCRF-CEM leukemia, greater than 150 µg/mL; in the test with U251 CNS it was greater than 150 µg/mL; in the test with UACC-62 melanoma, greater than 150 µg/mL. For the same compound, the TGI in the test with EKVX NSCLC, with SK-OV-3 ovarian, with SF-295 CNS and in the test with NCI-H460 lung was greater than 150 µg/mL in each case.

Take `O=C(Nc1ccc2[nH]c(=S)sc2c1)Nc1ccccc1F`: the GI50 in the test with HCT-15 colon is 20.4 µM; in the test on SNB-75 CNS, 22.9 µM; in the test with OVCAR-4 ovarian it was 21 µM; in the test on CCRF-CEM leukemia, 26.7 µM; with U251 CNS it was 57.5 µM; in the test with UACC-62 melanoma, 18.5 µM. Besides, the GI50 was 22.3 µM with EKVX NSCLC, greater than 100 µM in the test with SK-OV-3 ovarian, 28.8 µM with SF-295 CNS and 38 µM with NCI-H460 lung. In addition, the TGI in the test on HCT-15 colon, in the test with SNB-75 CNS, with OVCAR-4 ovarian, in the test on CCRF-CEM leukemia, in the test with U251 CNS and in the test with UACC-62 melanoma was greater than 100 µM each time. Also, the TGI in the test with EKVX NSCLC, in the test on SK-OV-3 ovarian, in the test with SF-295 CNS and with NCI-H460 lung was greater than 100 µM throughout.

Take `Cc1ccc([N+](=O)[O-])cc1NC(=O)c1cccc([N+](=O)[O-])c1O`: the TGI with HCT-15 colon was greater than 100 µM; in the test with SNB-75 CNS, 43.7 µM; in the test on CCRF-CEM leukemia, 83.7 µM; in the test with U251 CNS, greater than 100 µM; with UACC-62 melanoma, 38.1 µM; in the test with EKVX NSCLC, 72 µM. Besides, the TGI in the test on SK-OV-3 ovarian was 54.3 µM; in the test with SF-295 CNS, 63.3 µM; with NCI-H460 lung it was greater than 100 µM.

In the case of `Cc1cc(NS(=O)(=O)c2ccc(NC(=O)c3ccc(Cl)c4c(Nc5ccc(S(=O)(=O)N=C(N)N)cc5)c5ccccc5nc34)cc2)no1`, the TGI is greater than 100 µM in the test with HCT-15 colon; 95.6 µM in the test on SNB-75 CNS; greater than 100 µM with OVCAR-4 ovarian; 67.2 µM with CCRF-CEM leukemia; 38.9 µM in the test with U251 CNS; greater than 100 µM in the test on UACC-62 melanoma. The TGI in the test with EKVX NSCLC, in the test with SK-OV-3 ovarian, with SF-295 CNS and with NCI-H460 lung was greater than 100 µM in each case.

In the case of `O=C1C2C=CC(C2)C(c2ccc(O)cc2)N1O` (configuration not stated), the TGI with SNB-75 CNS, in the test on OVCAR-4 ovarian, with CCRF-CEM leukemia, with U251 CNS, in the test on UACC-62 melanoma and in the test with EKVX NSCLC was greater than 100 µM each time. Further, the TGI in the test on SK-OV-3 ovarian, in the test on SF-295 CNS and with NCI-H460 lung was greater than 100 µM each time.
